Measurements from BindingDB's records for doi:10.1007/s00213-009-1521-8 (Case Western Reserve University, 2009).

Experiments:
[1] = biological target: Prostaglandin E2 receptor EP3 subtype (Homo sapiens, UniProt P43115)
[2] = biological target: 5-hydroxytryptamine receptor 1E (Homo sapiens, UniProt P28566)
[3] = biological target: 5-hydroxytryptamine receptor 2C (Homo sapiens, UniProt P28335)
[4] = biological target: Delta-type opioid receptor (Homo sapiens, UniProt P41143)
[5] = biological target: Muscarinic acetylcholine receptor M4 (Homo sapiens, UniProt P08173)
[6] = biological target: Alpha-1B adrenergic receptor (Homo sapiens, UniProt P35368)
[7] = biological target: 5-hydroxytryptamine receptor 1D (Homo sapiens, UniProt P28221)
[8] = biological target: Beta-1 adrenergic receptor (Homo sapiens, UniProt P08588)
[9] = biological target: 5-hydroxytryptamine receptor 5A (Homo sapiens, UniProt P47898)
[10] = biological target: Histamine H2 receptor (Homo sapiens, UniProt P25021)
[11] = biological target: Prostaglandin E2 receptor EP4 subtype (Homo sapiens, UniProt P35408)
[12] = biological target: Alpha-1D adrenergic receptor (Homo sapiens, UniProt P25100)
[13] = biological target: Beta-2 adrenergic receptor (Homo sapiens, UniProt P07550)
[14] = biological target: Histamine H1 receptor (Homo sapiens, UniProt P35367)
[15] = biological target: 5-hydroxytryptamine receptor 3A (Homo sapiens, UniProt P46098)
[16] = biological target: Muscarinic acetylcholine receptor M2 (Homo sapiens, UniProt P08172)
[17] = biological target: Muscarinic acetylcholine receptor M5 (Homo sapiens, UniProt P08912)
[18] = biological target: Alpha-2A adrenergic receptor (Homo sapiens, UniProt P08913)
[19] = biological target: Alpha-2C adrenergic receptor (Homo sapiens, UniProt P18825)
[20] = biological target: Sigma non-opioid intracellular receptor 1 (Rattus norvegicus, UniProt Q9R0C9)
[21] = biological target: 5-hydroxytryptamine receptor 1B (Homo sapiens, UniProt P28222)
[22] = biological target: D(4) dopamine receptor (Homo sapiens, UniProt P21917)
[23] = biological target: Mu-type opioid receptor (Homo sapiens, UniProt P35372)
[24] = biological target: Muscarinic acetylcholine receptor M3 (Homo sapiens, UniProt P20309)
[25] = biological target: Alpha-1A adrenergic receptor (Homo sapiens, UniProt P35348)
[26] = biological target: 5-hydroxytryptamine receptor 1A (Homo sapiens, UniProt P08908)
[27] = biological target: Histamine H4 receptor (Homo sapiens, UniProt Q9H3N8)
[28] = biological target: D(1B) dopamine receptor (Homo sapiens, UniProt P21918)
[29] = biological target: Gamma-aminobutyric acid receptor subunit alpha-1 (Rattus norvegicus, UniProt P62813)
[30] = biological target: Kappa-type opioid receptor (Homo sapiens, UniProt P41145)
[31] = biological target: Muscarinic acetylcholine receptor M1 (Homo sapiens, UniProt P11229)
[32] = biological target: 5-hydroxytryptamine receptor 6 (Homo sapiens, UniProt P50406)
[33] = biological target: Sodium-dependent noradrenaline transporter (Homo sapiens, UniProt P23975)
[34] = biological target: D(1A) dopamine receptor (Homo sapiens, UniProt P21728)
[35] = biological target: Beta-3 adrenergic receptor (Homo sapiens, UniProt P13945)

Sequence of Alpha-2A adrenergic receptor (P08913 whole entry): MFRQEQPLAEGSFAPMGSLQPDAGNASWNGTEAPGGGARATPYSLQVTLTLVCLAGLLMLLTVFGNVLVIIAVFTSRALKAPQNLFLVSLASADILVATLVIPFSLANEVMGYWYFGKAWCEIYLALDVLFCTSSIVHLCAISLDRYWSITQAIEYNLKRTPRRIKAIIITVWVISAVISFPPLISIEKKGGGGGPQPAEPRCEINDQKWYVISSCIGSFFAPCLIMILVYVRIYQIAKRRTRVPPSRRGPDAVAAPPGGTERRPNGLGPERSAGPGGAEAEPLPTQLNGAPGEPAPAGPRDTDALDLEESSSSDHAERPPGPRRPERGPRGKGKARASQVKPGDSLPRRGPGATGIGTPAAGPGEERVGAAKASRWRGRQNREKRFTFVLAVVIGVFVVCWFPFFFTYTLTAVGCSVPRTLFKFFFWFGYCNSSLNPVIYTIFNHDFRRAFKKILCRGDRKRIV
Sequence of Muscarinic acetylcholine receptor M4 (P08173 whole entry): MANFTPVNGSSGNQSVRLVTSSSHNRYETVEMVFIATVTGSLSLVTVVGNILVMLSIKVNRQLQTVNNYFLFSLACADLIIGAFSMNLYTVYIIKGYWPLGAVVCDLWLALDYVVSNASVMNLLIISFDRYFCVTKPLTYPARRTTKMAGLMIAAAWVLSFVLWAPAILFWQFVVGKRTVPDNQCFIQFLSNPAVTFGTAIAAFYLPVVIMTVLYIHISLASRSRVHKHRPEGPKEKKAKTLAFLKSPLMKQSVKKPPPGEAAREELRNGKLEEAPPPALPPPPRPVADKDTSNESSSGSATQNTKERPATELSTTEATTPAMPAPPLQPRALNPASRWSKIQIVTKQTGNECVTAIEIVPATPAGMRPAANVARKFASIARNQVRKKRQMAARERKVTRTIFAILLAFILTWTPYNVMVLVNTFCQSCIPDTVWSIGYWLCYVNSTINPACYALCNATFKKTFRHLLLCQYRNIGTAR
Sequence of Histamine H2 receptor (P25021 whole entry): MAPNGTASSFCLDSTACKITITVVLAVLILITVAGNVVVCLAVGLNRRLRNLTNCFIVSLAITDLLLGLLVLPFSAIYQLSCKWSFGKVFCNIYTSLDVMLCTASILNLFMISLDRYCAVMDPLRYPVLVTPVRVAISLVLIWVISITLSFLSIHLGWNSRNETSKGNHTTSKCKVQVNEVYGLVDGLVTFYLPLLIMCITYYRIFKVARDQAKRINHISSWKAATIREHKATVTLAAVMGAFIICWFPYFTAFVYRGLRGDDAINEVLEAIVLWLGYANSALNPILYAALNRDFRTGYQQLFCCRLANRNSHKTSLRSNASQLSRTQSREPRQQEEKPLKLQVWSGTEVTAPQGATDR
Sequence of Muscarinic acetylcholine receptor M1 (P11229 whole entry): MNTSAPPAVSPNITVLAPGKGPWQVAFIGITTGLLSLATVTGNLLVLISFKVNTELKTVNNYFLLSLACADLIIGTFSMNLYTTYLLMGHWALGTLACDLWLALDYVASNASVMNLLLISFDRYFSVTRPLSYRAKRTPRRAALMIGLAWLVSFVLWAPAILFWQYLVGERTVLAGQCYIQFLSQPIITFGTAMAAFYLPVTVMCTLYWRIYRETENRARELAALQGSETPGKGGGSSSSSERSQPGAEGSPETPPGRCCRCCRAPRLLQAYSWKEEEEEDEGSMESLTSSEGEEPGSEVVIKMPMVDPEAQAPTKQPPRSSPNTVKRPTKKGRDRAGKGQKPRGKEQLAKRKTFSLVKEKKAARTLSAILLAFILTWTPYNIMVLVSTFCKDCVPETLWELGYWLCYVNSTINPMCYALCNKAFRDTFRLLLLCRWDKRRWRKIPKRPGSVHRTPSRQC
Sequence of Sigma non-opioid intracellular receptor 1 (Q9R0C9 whole entry): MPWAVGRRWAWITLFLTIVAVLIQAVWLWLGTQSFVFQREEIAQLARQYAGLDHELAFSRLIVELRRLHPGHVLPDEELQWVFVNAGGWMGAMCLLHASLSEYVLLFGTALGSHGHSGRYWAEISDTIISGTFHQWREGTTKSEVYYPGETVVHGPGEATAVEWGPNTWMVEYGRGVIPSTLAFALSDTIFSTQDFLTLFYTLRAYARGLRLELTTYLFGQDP
Sequence of Muscarinic acetylcholine receptor M2 (P08172 whole entry): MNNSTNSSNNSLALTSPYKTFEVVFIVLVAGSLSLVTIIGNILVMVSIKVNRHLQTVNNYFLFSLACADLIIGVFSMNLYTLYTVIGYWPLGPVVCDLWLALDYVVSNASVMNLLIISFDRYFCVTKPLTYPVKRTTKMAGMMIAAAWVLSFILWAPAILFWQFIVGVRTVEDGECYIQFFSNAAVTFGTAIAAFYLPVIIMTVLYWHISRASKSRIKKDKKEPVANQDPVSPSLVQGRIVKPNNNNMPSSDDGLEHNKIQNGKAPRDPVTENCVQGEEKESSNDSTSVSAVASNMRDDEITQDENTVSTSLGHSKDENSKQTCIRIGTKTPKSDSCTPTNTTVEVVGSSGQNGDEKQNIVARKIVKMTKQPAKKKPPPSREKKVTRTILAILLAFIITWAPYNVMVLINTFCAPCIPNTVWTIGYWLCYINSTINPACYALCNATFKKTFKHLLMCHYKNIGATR
Sequence of Histamine H4 receptor (Q9H3N8 whole entry): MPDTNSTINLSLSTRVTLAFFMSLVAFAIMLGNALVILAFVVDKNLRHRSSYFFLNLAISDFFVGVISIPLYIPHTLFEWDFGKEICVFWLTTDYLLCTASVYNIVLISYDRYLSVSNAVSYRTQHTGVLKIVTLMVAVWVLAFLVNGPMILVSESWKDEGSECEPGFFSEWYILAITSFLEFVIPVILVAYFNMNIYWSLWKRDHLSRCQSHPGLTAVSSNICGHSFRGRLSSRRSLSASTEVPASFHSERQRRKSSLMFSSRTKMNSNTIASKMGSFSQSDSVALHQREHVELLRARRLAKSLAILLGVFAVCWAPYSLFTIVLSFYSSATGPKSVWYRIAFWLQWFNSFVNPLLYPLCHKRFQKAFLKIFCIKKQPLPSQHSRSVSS
Sequence of Muscarinic acetylcholine receptor M3 (P20309 whole entry): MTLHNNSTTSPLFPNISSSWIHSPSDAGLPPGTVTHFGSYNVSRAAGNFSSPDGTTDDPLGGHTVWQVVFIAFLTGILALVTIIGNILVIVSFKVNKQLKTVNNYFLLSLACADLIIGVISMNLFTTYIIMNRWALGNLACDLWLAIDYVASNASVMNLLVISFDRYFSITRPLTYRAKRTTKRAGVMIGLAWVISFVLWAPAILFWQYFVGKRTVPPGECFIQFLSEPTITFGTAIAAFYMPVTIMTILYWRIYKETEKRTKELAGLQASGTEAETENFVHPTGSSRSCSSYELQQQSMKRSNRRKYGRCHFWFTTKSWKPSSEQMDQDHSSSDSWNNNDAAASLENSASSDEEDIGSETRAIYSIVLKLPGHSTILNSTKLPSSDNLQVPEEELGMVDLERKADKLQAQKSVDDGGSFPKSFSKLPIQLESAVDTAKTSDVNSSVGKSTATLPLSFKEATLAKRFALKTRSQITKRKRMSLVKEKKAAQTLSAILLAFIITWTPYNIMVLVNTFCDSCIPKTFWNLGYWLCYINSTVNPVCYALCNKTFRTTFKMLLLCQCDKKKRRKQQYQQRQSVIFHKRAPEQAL
Sequence of Sodium-dependent noradrenaline transporter (P23975 whole entry): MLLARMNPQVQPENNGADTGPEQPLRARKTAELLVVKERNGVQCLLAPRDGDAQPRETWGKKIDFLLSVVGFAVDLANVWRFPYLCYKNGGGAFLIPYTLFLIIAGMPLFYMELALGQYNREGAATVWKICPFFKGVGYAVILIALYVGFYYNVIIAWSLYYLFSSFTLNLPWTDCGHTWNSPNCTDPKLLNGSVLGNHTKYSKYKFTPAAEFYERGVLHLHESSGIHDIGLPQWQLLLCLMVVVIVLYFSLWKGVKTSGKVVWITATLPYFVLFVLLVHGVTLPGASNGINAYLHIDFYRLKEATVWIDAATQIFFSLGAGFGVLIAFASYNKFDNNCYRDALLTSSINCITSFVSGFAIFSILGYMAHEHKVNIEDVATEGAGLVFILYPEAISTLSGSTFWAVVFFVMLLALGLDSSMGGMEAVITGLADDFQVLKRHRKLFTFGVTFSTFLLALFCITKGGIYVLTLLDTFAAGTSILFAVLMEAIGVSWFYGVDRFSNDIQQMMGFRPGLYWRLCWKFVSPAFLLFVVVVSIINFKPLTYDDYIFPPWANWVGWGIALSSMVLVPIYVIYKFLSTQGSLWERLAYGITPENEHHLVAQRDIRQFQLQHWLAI
Sequence of Gamma-aminobutyric acid receptor subunit alpha-1 (P62813 whole entry): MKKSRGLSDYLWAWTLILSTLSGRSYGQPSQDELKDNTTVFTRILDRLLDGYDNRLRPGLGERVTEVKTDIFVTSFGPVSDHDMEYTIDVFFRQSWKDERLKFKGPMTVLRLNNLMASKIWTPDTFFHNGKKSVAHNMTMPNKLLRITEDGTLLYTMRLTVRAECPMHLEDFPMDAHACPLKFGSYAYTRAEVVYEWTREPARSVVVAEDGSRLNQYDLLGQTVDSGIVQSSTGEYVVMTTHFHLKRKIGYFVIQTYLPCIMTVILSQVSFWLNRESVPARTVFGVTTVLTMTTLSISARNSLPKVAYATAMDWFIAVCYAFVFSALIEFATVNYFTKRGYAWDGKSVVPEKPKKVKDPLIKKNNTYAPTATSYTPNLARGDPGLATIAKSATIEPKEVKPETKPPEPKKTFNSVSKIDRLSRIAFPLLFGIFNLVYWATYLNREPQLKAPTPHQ
Sequence of 5-hydroxytryptamine receptor 1E (P28566 whole entry): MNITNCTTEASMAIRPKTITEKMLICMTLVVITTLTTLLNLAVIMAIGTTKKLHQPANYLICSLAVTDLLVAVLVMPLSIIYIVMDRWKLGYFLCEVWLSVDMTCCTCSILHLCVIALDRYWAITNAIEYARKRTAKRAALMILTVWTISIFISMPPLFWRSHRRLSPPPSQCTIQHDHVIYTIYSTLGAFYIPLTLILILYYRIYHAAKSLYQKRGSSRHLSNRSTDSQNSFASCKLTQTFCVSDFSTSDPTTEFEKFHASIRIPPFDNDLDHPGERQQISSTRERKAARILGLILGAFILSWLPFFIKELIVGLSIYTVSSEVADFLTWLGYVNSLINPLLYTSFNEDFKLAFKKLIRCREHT

CCN1CCCC1CNC(=O)c1cc(S(=O)(=O)CC)c(N)cc1OC (stereo not given) [NSC_2159]
Ki [1]: > 10 µM | Ki [2]: > 10 µM | Ki [3]: > 10 µM | Ki [4]: > 10 µM | Ki [5]: > 10 µM | Ki [6]: > 10 µM | Ki [7]: 1.34 µM | Ki [8]: > 10 µM | Ki [9]: > 10 µM | Ki [10]: > 10 µM | Ki [11]: > 10 µM | Ki [12]: > 10 µM | Ki [13]: > 10 µM | Ki [14]: > 10 µM | Ki [15]: > 10 µM | Ki [16]: > 10 µM | Ki [17]: > 10 µM | Ki [18]: 1.11 µM | Ki [19]: 1.54 µM | Ki [20]: > 10 µM | Ki [21]: 1.74 µM | Ki [22]: 2.37 µM | Ki [23]: > 10 µM | Ki [24]: > 10 µM | Ki [25]: > 10 µM | Ki [26]: > 10 µM | Ki [27]: > 10 µM | Ki [28]: > 10 µM | Ki [29]: > 10 µM | Ki [30]: > 10 µM | Ki [31]: > 10 µM | Ki [32]: 4.15 µM | Ki [33]: > 10 µM | Ki [34]: > 10 µM | Ki [35]: > 10 µM
